{"source": "patent US20230026232A1", "about": "“AHR INHIBITORS AND USES THEREOF” (Ikena Oncology, Inc., priority 2019, published 2023)", "key": {"[1]": {"assay": "Solubility of bulk API in biorelevant media by HPLC", "format": "physicochemical", "conditions": "thermodynamic from solid, up to 24 hours", "experimental": "Solubility of bulk APIs was conducted in various biorelevant media. Small amounts of API were suspended in media and continuously agitated at room temperature for a period up to 24 hours. Samples were centrifuged to pellet out undissolved solids and the resulting supernatant was sampled, diluted, and analyzed by HPLC utilizing the short-assay method sued for dissolution sample analysis. Both forms show poor gastric solubility, with the maleate salt displaying an order of magnitude larger solubility in intestinal media."}, "[2]": {"assay": "Intrinsic dissolution in 0.5% Tween 80", "format": "physicochemical", "conditions": "0.5% Tween 80, 100 rpm, 37° C.", "experimental": "Milled and as-received API samples were weighed and compressed into a compact using a hydraulic press at 3,000 psi for 60 seconds. Compacts were mounted on intrinsic dissolution apparatus and dissolution study was conducted using USP dissolution apparatus in 250 mL of 0.5% Tween 80 solution at 100 rpm at 37° C. in duplicate. Aliquots (1.0 mL) of dissolution media are taken at selected time-points from each dissolution vessel at 5 minute intervals from 5 to 40 minutes. Each sample was centrifuged at 14,000 rpm for 3 minutes and the supernatant was samples and diluted with diluent for HPLC analysis (Table 7). The retention time of Compound A is about 1.5 minutes.\nThe Intrinsic dissolution performance of the jet-milled API vs. as received API was conducted to observe any increase in dissolution by particle size reduction. FIG. 8 and Table 15 below show the intrinsic dissolution results."}, "[3]": {"assay": "Phase 1 dose-escalation study: interim cohort pharmacokinetics", "format": "in vivo, human", "conditions": "Cycle 2 Day 1 (C2D1)", "experimental": "Serial blood samples are obtained to characterize the plasma PK of Compound A and its major active metabolites. The initial sampling strategy is based on the predicted human PK of this compound. If in the course of evaluating the PK, it is determined that an alternative sampling scheme would be more informative, then that alternative sampling scheme may be implemented if the total amount of blood and blood draws obtained for PK is not increased. Moreover, the total number of samples may be decreased at any time if the initial sampling scheme is considered unnecessarily intensive.\nInterim cohort pharmacokinetics were assessed on parent (Compound A) and two active metabolites (Compound B and Compound C). […] Compound B metabolite ratio is increased on C2D1 in cohorts above 200 mg dosages. […] Without wishing to be bound or limited by theory, elimination rate limited kinetics likely contributing to the accumulation of Compound B through on-target inhibition of CYP1A1."}, "[4]": {"assay": "Nonclinical safety studies incl. 28-day GLP study in rat", "format": "in vivo", "conditions": "rats", "text": "The nonclinical safety of Compound A has been evaluated in a series of pharmacological, single-dose and repeated-dose toxicological studies in rodent and non-rodent species including 28-day Good Laboratory Practice (GLP) studies in rat and monkeys. […] All changes were resolved or resolving after 2 weeks of dosing cessation, except for the testicular changes in rats. The nonclinical safety assessment from these studies supports clinical evaluation of Compound A in humans. The initial planned dose of Compound A for this study is 200 mg once daily (QD), based on evaluation of the Compound A nonclinical safety data."}, "human T cell": {"tested_on": "human T cell", "assay": "Human T cell assays: pro-inflammatory cytokines", "format": "cell-based", "text": "Compound A is a selective AHR antagonist being developed as an orally administered therapeutic. […] Compound A inhibits CYP1A1 and interleukin (IL)-22 gene expression and leads to an increase in pro-inflammatory cytokines, such as IL-2 and IL-9."}, "AHR": {"target": "T1, AHR (Homo sapiens, UniProt P35869)", "T1 sequence (P35869 11-848)": "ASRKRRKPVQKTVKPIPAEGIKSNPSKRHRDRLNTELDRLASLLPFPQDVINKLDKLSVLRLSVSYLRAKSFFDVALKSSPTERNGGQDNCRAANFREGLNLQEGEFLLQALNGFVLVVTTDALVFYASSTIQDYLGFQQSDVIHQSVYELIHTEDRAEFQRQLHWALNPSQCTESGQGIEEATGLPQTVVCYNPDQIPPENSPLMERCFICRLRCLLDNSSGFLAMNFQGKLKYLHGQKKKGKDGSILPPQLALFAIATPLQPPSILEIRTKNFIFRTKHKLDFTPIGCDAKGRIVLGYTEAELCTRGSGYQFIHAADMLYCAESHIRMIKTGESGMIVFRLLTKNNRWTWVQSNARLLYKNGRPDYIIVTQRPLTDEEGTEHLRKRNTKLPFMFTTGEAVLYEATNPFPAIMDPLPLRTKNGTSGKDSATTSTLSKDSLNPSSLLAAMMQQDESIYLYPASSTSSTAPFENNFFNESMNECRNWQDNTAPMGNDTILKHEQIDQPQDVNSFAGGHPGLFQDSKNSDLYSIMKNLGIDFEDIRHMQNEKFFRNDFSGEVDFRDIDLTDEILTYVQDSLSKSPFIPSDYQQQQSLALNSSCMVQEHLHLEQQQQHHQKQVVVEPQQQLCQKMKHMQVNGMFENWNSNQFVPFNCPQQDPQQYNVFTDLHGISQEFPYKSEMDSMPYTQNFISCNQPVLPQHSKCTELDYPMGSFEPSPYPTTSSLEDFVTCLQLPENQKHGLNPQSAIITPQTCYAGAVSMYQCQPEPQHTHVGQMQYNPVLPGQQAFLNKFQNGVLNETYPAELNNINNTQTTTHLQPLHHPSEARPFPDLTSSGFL", "assay": "Phase 1 study: pharmacodynamic modulation of AHR target genes in a whole blood assay", "format": "in vivo", "design": "endogenous in cells", "conditions": "all subjects in the 200 mg, 400 mg, and 800 mg cohorts", "text": "Because the starting dose and any higher dose is expected to be near or at the pharmacologically active range, each subject is required to have blood drawn and tumor biopsies for secondary and exploratory pharmacodynamic endpoints. The blood and tumor tissue samples are used to confirm AHR target engagement. Individual subjects can be exempted from the tumor biopsy requirement upon discussion and prior agreement by the Sponsor. The initial sampling strategy is based on the predicted human pharmacodynamics of this compound. If in the course of evaluating the pharmacodynamics, it is determined that an alternative sampling scheme would be more informative, then that alternative sampling scheme can be implemented if the total amount of blood, blood draws, and tumor biopsies obtained for pharmacodynamics is not increased. Moreover, the total number of samples can be decreased at any time if the initial sampling scheme is considered unnecessarily intensive.\nPharmacodynamic (PD) modulation of AHR target genes were analyzed in a whole blood assay."}}, "note": "Entries after “also recorded” stand apart in the source; their conditions may differ.", "data": [{"smiles": "CC(C)c1cnn2c(N[C@@H]3CCc4[nH]c5ccccc5c4C3)nc(-c3cncc(F)c3)nc12", "note": "[Compound A, (R)—N-(2-(5-fluoropyridin-3-yl)-8-isopropylpyrazolo[1,5-a][1,3,5]triazin-4-yl)-2,3,4,9-tetrahydro-1H-carbazol-3-amine]", "values": [{"measurement": "solubility", "setting": "[1]; simulated gastric fluid, 0.1N HCl, room temperature", "value": "< 0.5", "unit": "µg/mL"}, {"measurement": "solubility", "setting": "[1]; FaSSIF, pH 6.8, room temperature", "value": 1.4, "unit": "µg/mL"}, {"measurement": "IDR (intrinsic dissolution rate)", "setting": "[2]", "value": 0.85, "unit": "ug/min*cm^2"}, {"measurement": "dose proportionality of PK", "setting": "[3]", "value": "greater than dose proportional"}, {"measurement": "noteworthy findings in nonclinical safety studies", "setting": "[4]", "value": "non-glandular stomach ulceration and edema; also recorded: seminiferous tubule degeneration and debris in the epididymis lumen"}, {"measurement": "pro-inflammatory cytokines, such as IL-2 and IL-9", "setting": "human T cell", "value": "increase"}, {"measurement": "inhibition of expression of AHR target gene CYP1B1", "setting": "AHR", "value": "Robust inhibition"}]}]}
